Experimental data from patent US12479827B2, “Heteroaromatic carboxamide derivatives as plasma kallikrein inhibitors” (Boehringer Ingelheim International GmbH, priority 2020, dated 2025).

Key:
Human PKK = target: T1, Human PKK (Homo sapiens, UniProt P03952); assay: Inhibition of PKK using an endpoint assay (human PKK); format: biochemical; details: fluorogenic substrate H-Pro-Phe-Arg-AMC, 1 h room temperature, method names human or rat PKK, table does not say which
T1 construct: purchased Enzyme Research Laboratories
T1 sequence (P03952 20-390 limits assumed): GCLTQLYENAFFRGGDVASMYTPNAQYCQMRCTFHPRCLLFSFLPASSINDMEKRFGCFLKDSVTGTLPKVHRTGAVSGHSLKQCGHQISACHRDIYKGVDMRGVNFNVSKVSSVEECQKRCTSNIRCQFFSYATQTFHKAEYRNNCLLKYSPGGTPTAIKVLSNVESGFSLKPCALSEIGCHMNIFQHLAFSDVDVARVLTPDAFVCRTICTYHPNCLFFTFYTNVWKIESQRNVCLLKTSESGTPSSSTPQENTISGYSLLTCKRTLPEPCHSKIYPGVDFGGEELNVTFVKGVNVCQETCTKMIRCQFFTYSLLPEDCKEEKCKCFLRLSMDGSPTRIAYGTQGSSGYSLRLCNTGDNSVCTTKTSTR
T1 sequence (P03952 391-638 limits assumed): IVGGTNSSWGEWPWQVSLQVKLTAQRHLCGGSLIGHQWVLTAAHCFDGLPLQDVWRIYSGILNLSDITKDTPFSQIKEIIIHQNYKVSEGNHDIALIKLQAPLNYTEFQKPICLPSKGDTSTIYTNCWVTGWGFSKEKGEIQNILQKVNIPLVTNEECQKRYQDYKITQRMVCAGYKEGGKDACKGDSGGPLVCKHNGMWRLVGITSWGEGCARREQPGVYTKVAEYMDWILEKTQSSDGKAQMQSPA
Outline: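 Endpoint fluorescence (ex 355 nm, em 460 nm) after stopping with 1 μM final PPACK II. Buffer: Tris 100 mM pH 7.8, NaCl 150 mM, BSA 0.1%, Tween20 0.05%, with 1% DMSO present; enzyme is human plasma kallikrein.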

[1] = target: T2, PKK in kaolin activated human platelet poor plasma (Homo sapiens, UniProt P03952); assay: Inhibition of PKK in kaolin activated human PPP; format: biochemical; details: 25-750 μg/mL kaolin, global fit, text b200 calls the values IC90;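 note: readout is the rate of fluorogenic substrate cleavage in rfu per min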
T2 construct: Platelet poor plasma (PPP) obtained from human wholeblood; from tissue
T2 sequence (P03952 391-638 limits assumed): as above
T2 sequence (P03952 20-390 limits assumed): as the sequence (P03952 20-390 limits assumed) above
Experimental: Platelet poor plasma (PPP) obtained from human wholeblood, anticoagulated with Na-Citrate, is incubated with various concentrations of the test compound together with either 25, 75, 250, or 750 μg/mL kaolin in assay buffer for 20 min at 37° C. such that for each kaolin dose used a concentration response is obtained for the test compound.

| SMILES | IC50 (Human PKK) | IC50 [1] |
| --- | --- | --- |
| Cn1cnc2c1CC[C@H]2NC(=O)c1cnn(Cc2ccc(N3CC4CC4C3)nc2C(F)F)c1 (stereo partly drawn) [Example 48, 1-[(6-{3-Azabicyclo[3.1.0]hexan-3-yl}-2-(difluoromethyl)-pyridin-3-yl)methyl]-N-[(4R)-1-methyl-1H,4H,5H,6H-cyclopenta[d]imidazol-4-yl]-1H-pyrazole-4-carboxamide] | 2.8 nM | 612 nM |
| Cn1cnc2c1CC[C@H]2NC(=O)c1cn(Cc2ccc(N3CC4C(C3)C4(F)F)nc2CO)nn1 (stereo partly drawn) [Example 50, 1-[(6-{6,6-Difluoro-3-azabicyclo[3.1.0]hexan-3-yl}-2-(hydroxymethyl)pyridin-3-yl)methyl]-N-[(4R)-1-methyl-1H,4H,5H,6H-cyclopenta[d]-imidazol-4-yl]-1H-1,2,3-triazole-4-carboxamide] | 1.7 nM | 110 nM |
| Cn1cnc2c1CC[C@H]2NC(=O)c1cn(Cc2ccc(N3CC4C(C3)C4(F)F)cn2)cn1 (stereo partly drawn) [Example 53, 1-[(5-{6,6-Difluoro-3-azabicyclo[3.1.0]hexan-3-yl}pyridin-2-yl)methyl]-N-[(4R)-1-methyl-1H,4H,5H,6H-cyclopenta[d]imidazol-4-yl]-1H-imidazole-4-carboxamide] | 2 nM | 203 nM |
| Cn1cnc2c1CC[C@H]2NC(=O)c1cnn(Cc2ccc(N3CC4CC4C3)nc2CCCO)c1 (stereo partly drawn) [Example 54, 1-[(6-{3-Azabicyclo[3.1.0]hexan-3-yl}-2-(3-hydroxypropyl)-pyridin-3-yl)methyl]-N-[(4R)-1-methyl-1H,4H,5H,6H-cyclopenta[d]imidazol-4-yl]-1H-pyrazole-4-carboxamide] | 0.7 nM | 109 nM |
| COCc1nc(N2CC3C(C2)C3(F)F)ccc1Cn1cc(C(=O)N[C@@H]2CCc3c2ncn3C)nn1 (stereo partly drawn) [Example 55, 1-[(6-{6,6-Difluoro-3-azabicyclo[3.1.0]hexan-3-yl}-2-(methoxymethyl)pyridin-3-yl)methyl]-N-[(4R)-1-methyl-1H,4H,5H,6H-cyclopenta[d]-imidazol-4-yl]-1H-1,2,3-triazole-4-carboxamide] | 2.3 nM | 250 nM |
| Cn1cnc2c1CC[C@H]2NC(=O)c1cnn(Cc2ccc(N3CC4(CC4)C3)nc2Cl)c1 [Example 56, 1-[(6-{5-Azaspiro[2.3]hexan-5-yl}-2-chloropyridin-3-yl)methyl]-N-[(4R)-1-methyl-1H,4H,5H,6H-cyclopenta[d]imidazol-4-yl]-1H-pyrazole-4-carboxamide] | 1.8 nM | 586 nM |
| Cn1cnc2c1CC[C@H]2NC(=O)c1cn(Cc2ccc(N3CC4C(C3)C4(F)F)nc2Cl)cn1 (stereo partly drawn) [Example 57, 1-[(2-Chloro-6-{6,6-difluoro-3-azabicyclo[3.1.0]-hexan-3-yl}pyridin-3-yl)methyl]-N-[(4R)-1-methyl-1H,4H,5H,6H-cyclopenta[d]imidazol-4-yl]-1H-imidazole-4-carboxamide] | 0.6 nM | 166 nM |
| Cn1cnc2c1CC[C@H]2NC(=O)c1cnn(Cc2cnc(N3CC4CC4C3)nc2CO)c1 (stereo partly drawn) [Example 62, 1-[(2-{3-Azabicyclo[3.1.0]hexan-3-yl}-4-(hydroxymethyl)-pyrimidin-5-yl)methyl]-N-[(4R)-1-methyl-1H,4H,5H,6H-cyclopenta[d]imidazol-4-yl]-1H-pyrazole-4-carboxamide] | 14 nM | 769 nM |
| Cn1cnc2c1CC[C@H]2NC(=O)c1cn(Cc2ccc(N3CC4C(C3)C4(F)F)nc2)cn1 (stereo partly drawn) [Example 63, 1-[(6-{6,6-Difluoro-3-azabicyclo[3.1.0]hexan-3-yl}pyridin-3-yl)methyl]-N-[(4R)-1-methyl-1H,4H,5H,6H-cyclopenta[d]imidazol-4-yl]-1H-imidazole-4-carboxamide] | 3 nM | 203 nM |
| Cn1cnc2c1CC[C@H]2NC(=O)c1cn(Cc2ccc(N3CC4CC4C3)nc2C(F)F)cn1 (stereo partly drawn) [Example 64, 1-[(6-{3-Azabicyclo[3.1.0]hexan-3-yl}-2-(difluoromethyl)-pyridin-3-yl)methyl]-N-[(4R)-1-methyl-1H,4H,5H,6H-cyclopenta[d]imidazol-4-yl]-1H-imidazole-4-carboxamide] | 0.7 nM | 221 nM |
| Cn1cnc2c1CC[C@H]2NC(=O)c1cnn(Cc2ccc(N3CC4CC4C3)nc2C(C)(C)C#N)c1 (stereo partly drawn) [Example 65, 1-[(6-{3-Azabicyclo[3.1.0]hexan-3-yl}-2-(1-cyano-1-methylethyl)pyridin-3-yl)methyl]-N-[(4R)-1-methyl-1H,4H,5H,6H-cyclopenta[d]-imidazol-4-yl]-1H-pyrazole-4-carboxamide] | 1.4 nM | 1230 nM |
| CCCc1nc(N2CC3C(C2)C3(F)F)ccc1Cn1cnc(C(=O)N[C@@H]2CCc3c2ncn3C)c1 (stereo partly drawn) [Example 66, 1-[(6-{6,6-Difluoro-3-azabicyclo[3.1.0]hexan-3-yl}-2-propylpyridin-3-yl)methyl]-N-[(4R)-1-methyl-1H,4H,5H,6H-cyclopenta[d]imidazol-4-yl]-1H-imidazole-4-carboxamide] | 0.7 nM | 839 nM |
| Cn1cnc2c1CC[C@H]2NC(=O)c1cnn(Cc2ccc(N3CC4C(C3)C4(F)F)nc2C2CCC2)c1 (stereo partly drawn) [Example 67, 1-[(2-Cydobutyl-6-{6,6-difluoro-3-azabicyclo[3.1.0]hexan-3-yl}pyridin-3-yl)methyl]-N-[(4R)-1-methyl-1H,4H,5H,6H-cyclopenta[d]imidazol-4-yl]-1H-pyrazole-4-carboxamide] | 3.1 nM | 635 nM |
| Cc1nc(N2CC3(CC3)C2)ccc1Cn1cc(C(=O)N[C@@H]2CCc3c2ncn3C)nn1 [Example 68, 1-[(6-{5-Azaspiro[2.3]hexan-5-yl}-2-methylpyridin-3-yl)-methyl]-N-[(4R)-1-methyl-1H,4H,5H,6H-cyclo-penta[d]imidazol-4-yl]-1H-1,2,3-triazole-4-carboxamide] | 1.4 nM | 637 nM |
| CCCc1nc(N2CC3C(C2)C3(F)F)ccc1Cn1cc(C(=O)N[C@@H]2CCc3c2ncn3C)cn1 (stereo partly drawn) [Example 69, 1-[(6-{6,6-Difluoro-3-azabicyclo[3.1.0]hexan-3-yl}-2-propylpyridin-3-yl)methyl]-N-[(4R)-1-methyl-1H,4H,5H,6H-cyclopenta[d]imidazol-4-yl]-1H-pyrazole-4-carboxamide] | 0.9 nM | 328 nM |
| Cc1nc(N2CC3CC3C2)ccc1Cn1cc(C(=O)N[C@@H]2CCc3c2ncn3C)c(C#N)n1 (stereo partly drawn) [Example 70, 1-[(6-{3-Azabicyclo[3.1.0]hexan-3-yl}-2-methylpyridin-3-yl)methyl]-3-cyano-N-[(4R)-1-methyl-1H,4H,5H,6H-cyclopenta[d]imidazol-4-yl]-1H-pyrazole-4-carboxamide] | 0.8 nM | 797 nM |
| Cn1cnc2c1CC[C@H]2NC(=O)c1cnn(Cc2ncc(N3CC4CC4C3)cn2)c1 (stereo partly drawn) [Example 71, 1-[(5-{3-Azabicyclo[3.1.0]hexan-3-yl}pyrimidin-2-yl)methyl]-N-[(4R)-1-methyl-1H,4H,5H,6H-cyclopenta[d]imidazol-4-yl]-1H-pyrazole-4-carboxamide] | 151 nM | 9310 nM |
| Cn1cnc2c1CC[C@H]2NC(=O)c1cn(Cc2ccc(N3CC4CC4C3)nc2)cn1 (stereo partly drawn) [Example 72, 1-[(6-{3-Azabicyclo[3.1.0]hexan-3-yl}pyridin-3-yl)methyl]-N-[(4R)-1-methyl-1H,4H,5H,6H-cyclopenta[d]imidazol-4-yl]-1H-imidazole-4-carboxamide] | 3.3 nM | 831 nM |
| Cn1cnc2c1CC[C@H]2NC(=O)c1cnn(Cc2ccc(N3CC4(CC4)C3)nc2)c1 [Example 73, 1-[(6-{5-Azaspiro[2.3]hexan-5-yl}pyridin-3-yl)-methyl]-N-[(4R)-1-methyl-1H,4H,5H,6H-cyclopenta[d]imidazol-4-yl]-1H-pyrazole-4-carboxamide] | 9.6 nM | 498 nM |
| Cn1cnc2c1CC[C@H]2NC(=O)c1cn(Cc2ccc(N3CC4(CC4)C3)nc2)cn1 [Example 74, 1-[(6-{5-Azaspiro[2.3]hexan-5-yl}pyridin-3-yl)-methyl]-N-[(4R)-1-methyl-1H,4H,5H,6H-cyclopenta[d]imidazol-4-yl]-1H-imidazole-4-carboxamide] | 6.9 nM | 321 nM |
| CCc1nc(N2CC3C(C2)C3(F)F)ccc1Cn1cnc(C(=O)N[C@@H]2CCc3c2ncn3C)c1 (stereo partly drawn) [Example 76, 1-[(6-{6,6-Difluoro-3-azabicyclo[3.1.0]hexan-3-yl}-2-ethylpyridin-3-yl)methyl]-N-[(4R)-1-methyl-1H,4H,5H,6H-cyclopenta[d]imidazol-4-yl]-1H-imidazole-4-carboxamide] | 0.6 nM | 270 nM |
| COCc1nc(N2CC3(CC3)C2)ccc1Cn1cnc(C(=O)N[C@@H]2CCc3c2ncn3C)c1 [Example 77, 1-[(6-{5-Azaspiro[2.3]hexan-5-yl}-2-(methoxymethyl)-pyridin-3-yl)methyl]-N-[(4R)-1-methyl-1H,4H,5H,6H-cyclopenta[d]imidazol-4-yl]-1H-imidazole-4-carboxamide] | 3.3 nM | 197 nM |
| COCc1nc(N2CC3(CC3)C2)ccc1Cn1cc(C(=O)N[C@@H]2CCc3c2ncn3C)cn1 [Example 78, 1-[(6-{5-Azaspiro[2.3]hexan-5-yl}-2-(methoxymethyl)-pyridin-3-yl)methyl]-N-[(4R)-1-methyl-1H,4H,5H,6H-cyclopenta[d]imidazol-4-yl]-1H-pyrazole-4-carboxamide] | 6.8 nM | 317 nM |
| Cn1cnc2c1CC[C@H]2NC(=O)c1cnn(Cc2ccc(N3CC4(CC4)C3)nc2CO)c1 [Example 79, 1-[(6-{5-Azaspiro[2.3]hexan-5-yl}-2-(hydroxymethyl)-pyridin-3-yl)methyl]-N-[(4R)-1-methyl-1H,4H,5H,6H-cyclopenta[d]imidazol-4-yl]-1H-pyrazole-4-carboxamide] | 5.5 nM | 249 nM |
